Assay results published in publication PMC5149032, “Secondary Metabolites and Biological Activities of Talaromyces sp. LGT-2, an Endophytic Fungus from Tripterygium Wilfordii” (Iranian Journal of Pharmaceutical Research : IJPR, 2016).

Target: monoamine oxidase (MAO), isoform not stated
Test: MAO inhibition assay (procedure cited to earlier paper; enzyme source not given)
Assay type: biochemical

IC50: 61 µM
Structure (SMILES): O=CN/C=C\c1ccc(O)cc1 [compound 11, (Z)-N-(4-hydroxystyryl)formamide]
